# Experiments:
# [1] = system: renal arterioles; conditions: renal artery, anesthetized rats; cited from earlier work
# [2] = target: T1, mesangial cell LTD4 receptor (Rattus norvegicus, UniProt Q924T8); experiment: biochemical
# T1 sequence (Q924T8 1-339): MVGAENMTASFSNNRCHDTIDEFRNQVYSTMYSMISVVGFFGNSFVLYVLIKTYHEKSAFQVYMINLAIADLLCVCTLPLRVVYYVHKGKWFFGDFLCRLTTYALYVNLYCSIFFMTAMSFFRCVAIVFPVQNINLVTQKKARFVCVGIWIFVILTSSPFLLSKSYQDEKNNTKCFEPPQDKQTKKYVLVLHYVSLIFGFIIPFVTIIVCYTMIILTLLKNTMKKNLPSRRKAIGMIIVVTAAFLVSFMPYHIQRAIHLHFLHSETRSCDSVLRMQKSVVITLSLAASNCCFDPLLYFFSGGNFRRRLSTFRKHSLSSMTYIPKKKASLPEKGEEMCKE
# Description: Mesangial Cell Culture: Rat mesangial cells were isolated and cultured as described previously (Harris, R. C., et al., J. Clin. Invest. 82:1028-1039(1988). Briefly, kidneys were exicesed from two young Sprague-Dawly rats under sterile conditions, and the cortices removed, minced, and washed several times in Hank's Balanced Salt Solution, containing 10 mM HEPES pH 7.4, amphotericin (0.25 μg/ml), and gentamicin (50 μg/ml). The tissue was then passed through consecutive sterilized stainless mesh filters with pore sizes of 212 μm, 150 μm, and then onto the final mesh of 75 μm. The isolated glomeruli were harvested from the surface of the 75 μm. The isolated glomeruli were harvested from the surface of the 75 μm filter and washed twisce with the Hank's Media. The glomeruli were suspended in RPMI 1640 Medium with 15% Fetal Bovine Serum (Givco), penicillin (100 μ/ml) and streptomycin (100 μg/ml) (Gibco), plated into 100 mm cell culture petri dishes, and incubated at 37° C. in a humidified atmosphere of 95% air and 5% air and 5% CO2. Mesangial cell colonies were subcultured in 60 mm culture dishes, and experiments were carried out in cells from passages 2 to 12. […] Cells were routinely grown in RPMI-1640, supplemented with 20% fetal calf serum, penicillin 100 μ/ml, and streptomycin 100 μg/ml.
# Binding studies were routinely performed at 4° C. […] The cells were then dissolved with 1.0 ml of 1.0 N NaOH, neutralized with HCl, dissolved in 10 ml of Aquasol (New England Nuclear, Boston, MA), and the bound radioactivity was determined using a scintillation counter (Beckman Instruments). […] Cell density was determined by counting cells from replicate wells, using a Coulter Counter ZBi (Coulter Electronics, Inc., Hialeah, Fla.).
# [3] = system: neutrophils; conditions: cited from earlier work
# [4] = system: vascular smooth muscle; conditions: cited from earlier work
# [5] = system: guinea pig lung; conditions: cited from earlier work
# [6] = system: rat mesangial cells; experiment: IP3 formation ([3H]-inositol labeled mesangial cells) in response to LTD4 or LXA4; assay type: cell-based; conditions: Mesangial cell, 5 s
# From the text: Statistical: ANOVA with Bonferroni modification for multiple pre-planned comparisons was used, within each group and between groups, to compare the changes in various whole kidney and microcirculatory indices which occurred from one period to another. In phosphoinositide generation studies, increases in [^3 H]-IP3 CPMs in agonist-treated cells were compared to vehicle-treated controls using upaired students t-test. Differences were considered significant at a p value ≤0.05. All values are reported as means ± SEM.
# The isolated glomeruli were harvested from the surface of the 75 μm filter and washed twisce with the Hank's Media. […] Mesangial cell colonies were subcultured in 60 mm culture dishes, and experiments were carried out in cells from passages 2 to 12.
# (§1) To label mesangial cells with [^3 H]-Inositol, cells grown to confluence in 60 mm culture dishes (10^6 cells/dish) were cultured in RPMI, supplemented with 10% dialyzed fetal calf serum and [^3 H]-inositol (1 μCi/ml) in a total incubation volume of 5 ml.
# Reactions were terminated by the addition of cold 10% trichloroacetic acid (TCA), the supernatants subjected to ether extraction, and the aqueous phase titrated to neutral pH using 0.1 M Tris base. […] To ensure the reliability of the separation technique, the same methods for extraction and separation were applied to known amounts of [^3 H]-IP1, [^3 H]IP2, and [^3 H]-IP3 standards (New England Nuclear) mixed in a ratio of 3:2:1, respectively, and subjected to separation by HPLC.
# [7] = system: LTD4 receptor; experiment: Inhibition of LTD4-induced IP3 formation in mesangial cells; assay type: cell-based, rat
# Description: Mesangial Cell Culture: Rat mesangial cells were isolated and cultured as described previously (Harris, R. C., et al., J. Clin. Invest. 82:1028-1039(1988). Briefly, kidneys were exicesed from two young Sprague-Dawly rats under sterile conditions, and the cortices removed, minced, and washed several times in Hank's Balanced Salt Solution, containing 10 mM HEPES pH 7.4, amphotericin (0.25 μg/ml), and gentamicin (50 μg/ml). The tissue was then passed through consecutive sterilized stainless mesh filters with pore sizes of 212 μm, 150 μm, and then onto the final mesh of 75 μm. The isolated glomeruli were harvested from the surface of the 75 μm. The isolated glomeruli were harvested from the surface of the 75 μm filter and washed twisce with the Hank's Media. The glomeruli were suspended in RPMI 1640 Medium with 15% Fetal Bovine Serum (Givco), penicillin (100 μ/ml) and streptomycin (100 μg/ml) (Gibco), plated into 100 mm cell culture petri dishes, and incubated at 37° C. in a humidified atmosphere of 95% air and […] 5% CO2. Mesangial cell colonies were subcultured in 60 mm culture dishes, and experiments were carried out in cells from passages 2 to 12. The criteria used to establish the identify of mesangial cells were as described previously (Harris, R. C., et al., J. Clin. Invest. 82:1028-1039 (1988)). Cells were routinely grown in RPMI-1640, supplemented with 20% fetal calf serum, penicillin 100 μ/ml, and streptomycin 100 μg/ml. […] All eicosanoids were stored under argon at -70° C. in methanol and their purity and quantity verified periodically by ultraviolet scanning and high pressure liquid chromatography (Serhan, C. N. et al., J. Biol. Chem. 261:16340 (1986)).
# as §1
# Reactions were terminated by the addition of cold 10% trichloroacetic acid (TCA), the supernatants subjected to ether extraction, and the aqueous phase titrated to neutral pH using 0.1 M Tris base. [^3 H]-IP1, [^3 H]-IP2, and [^3 H]-IP3 in the aqueous phase were separated and quantitated by anion exchange column chromatography, using the method of Berridge et al. (Berridge, M. J., Biochem. J. 220:345-360 (1984)). To ensure the reliability of the separation technique, the same methods for extraction and separation were applied to known amounts of [^3 H]-IP1, [^3 H]IP2, and [^3 H]-IP3 standards (New England Nuclear) mixed in a ratio of 3:2:1, respectively, and subjected to separation by HPLC. The latter was performed using established methodology described previously (Cunha-Melo, J. R., et al., J. Biol. Chem. 262:11455-11463 (1987)).
smiles,measurement,setting,value
"CCCCC[C@H](O)/C=C/C=C\C=C\C=C\[C@@H](O)[C@@H](O)CCCC(=O)O [LXA4, (5S,6R,15S)-5,6,15-trihydroxy-7,9,13-trans-11-cis-eicosatetraenoic acid]",Glomerular capillary ultrafiltration coefficient (Kf),[1],reduces
same,Renal arteriole response,[1],elicits vasodilator responses
same,IC50,[2],100 nM
same,"Neutrophil superoxide generation, elastase release and leukocyte chemotaxis",[3],"induce neutrophils to generate superoxide radicals, release elastase, and promote chemotaxis by leukocytes"
same,Concentration that relaxes (dilates) vascular smooth muscle,[4],less than 1 μM
same,Contraction of pulmonary smooth muscle,[5],contract pulmonary smooth muscle
same,activation at 0.001 µM,"[6]; 1 nM, 5 sec, n=3, p<0.05, read-out: increase in [3H]-IP3 counts over controls",46 ± 14%
same,activation at 0.01 µM,"[6]; 10 nM LXA4, 5 sec, n=6, p<0.05, read-out: increase in [3H]-IP3 counts over controls",50 ± 21%
same,activation at 0.05 µM,"[6]; 50 nM LXA4, 5 sec, n=3, p<0.05, read-out: increase in [3H]-IP3 counts over controls",44 ± 22%
same,activation at 0.1 µM,"[6]; 100 nM, 5 sec, n=5, p<0.05, read-out: increase in [3H]-IP3 counts over controls",45 ± 26%
same,Inhibition of LTD4-induced IP3 generation,"[7]; pre-incubation with 100 nM LXA4 for 10 min, then 10 nM LTD4 (n=3)",completely prevented
same,Inhibition of LTD4-induced stimulation of IP3 formation (FIG. 2),[7]; preexposure to 100 nM LXA4 for 10 minutes,abrogation

# Source: US5079261A, “Use of lipoxin A4 and its derivatives as antagonists for slow-reacting substances of anaphylaxis” (Brigham and Women's Hospital, priority 1989, dated 1992)
